{"source": "patent US11549115B2", "about": "“Compositions and methods for regulated gene expression” (YALE UNIVERSITY, priority 2017, dated 2023)", "key": {"[1]": {"test_system": "Bacteroides"}, "[2]": {"test_system": "Bt::tetR P1TDP^GH023-NanoLuc", "assay_type": "in vivo, mice", "description": "Germ-free Swiss Webster mice were orally gavaged with a mixture of 1×10^8 CFU of each of 14 human gut microbes shown in FIG. 12D and Table 3. With the exception of the reporter strain, all species are sensitive to gentamicin and/or erythromycin (data not shown). Colonization was allowed to stabilize for at least 7 days prior to the start of the experiment. Fecal pellets were collected daily, and mice were given aTC (100 μg/mL) in the drinking water for 48 hours after stool collection on Day 3. Fecal samples were homogenized, and fibrous/insoluble matter removed as described above. From the supernatant, 200 μL was stored for DNA purification as previously described (Goodman, A. L. et al., 2011, Nat. Protoc., 6:1969-1980) and subsequent qPCR analysis (described below), 10 μL was used for CFU determination of the reporter strain by plating dilutions on BHI-blood agar plates containing gentamicin and erythromycin, and 500 μL was used for luminescence measurements (described below).\nAt each time point, abundance of each species was assessed by qPCR from fecal DNA using strain specific primers described previously (Cullen, T. W. et al., 2015, Science, 347:170-175). qPCR was performed as described (Goodman, A. L. et al., 2009, Cell Host and Microbe, 6:279-289; Martens, E. C. et al., 2008, Cell Host and Microbe, 4:447-457) using a CFX96 instrument (BioRad) and SYBR FAST universal master mix (KAPA Biosystems). Mean strain quantities were calculated using a standard curve.\nThe 500 μL collected from the resuspended fecal supernatant was centrifuged at 21,130×g for 3 minutes to pellet bacterial cells, which were then resuspended in 50 μL 1× BugBuster (Novagen) in 1×PBS and lysed by one round of freeze-thaw and 10 minutes of nutation at 26° C. Samples were centrifuged at 21,130×g for 10 minutes at 4° C., and 10 μL of the supernatant was mixed with an equal volume of NanoLuc Reaction Buffer to induce luminescence production. Luminescence was measured after a 5 minute incubation at 26° C. on a plate reader (BioTek Synergy H1) with an integration time of 1 second at a gain setting of 100. […]"}, "[3]": {"experiment": "LC-MS quantification of aTC in fecal pellets", "assay_type": "in vivo, mice", "description": "Germ-free Swiss Webster mice were maintained in flexible plastic gnotobiotic isolators with a 12-hour light/dark cycle and provided a standard, autoclaved mouse chow (5K67 LabDiet, Purina) ad libitum and autoclaved water for the duration of the experiment. Filter-sterilized aTC was added to drinking water stored in red-tinted bottles (Ancare, #PC9RH8.5RD) to inhibit degradation by light. Mice were co-housed for the duration of the experiments. Cage changes were always carried out when aTC was withdrawn from drinking water. Fecal and luminal samples were collected and processed in 2.0 mL screw cap tubes (Axygen Scientific; #SCT-200-C). Germ free status was monitored by 16S rDNA-targeted PCR of fecal DNA and anaerobic and aerobic culture of fecal samples.\nGroups of 6 germ-free Swiss Webster mice were orally gavaged with 1×10^9 CFU of the desired B. thetaiotaomicron strain. Fecal samples (˜100-200 mg) were collected daily for 12 days. aTC (100 μg/mL) was administered in drinking water for 12 hours after fecal collection on day 1. Fecal samples were homogenized in 1 mL of 1× tris-buffered saline (TBS) with a single 5 mm stainless steel bead using a bead beater (BioSpec Products) at 26° C. for 1 minute on the high setting, followed by vortexing at top speed for 8 minutes. Samples were then centrifuged at 500×g for 1 minute to pellet fibrous and insoluble matter. Bacterial cells from 600 μL of the supernatant was isolated through centrifugation at 21,130×g for 3 minutes, resuspended in 50 μL of Sialidase Reaction buffer (50 mM Tris-HCl pH 7.0, 5 mM EDTA) containing 1× BugBuster, and stored at −80° C. for ex vivo sialidase measurements (described below).\nTo the remaining material, 400 mg of 0.1 mm glass beads was added and further homogenized by bead beating for 2 minutes. Insoluble material was pelleted by centrifuging the sample for 3 minutes at 21,130×g, and 20 μL of the supernatant was used for mass spectrometry measurements of sialic acid and aTC by liquid chromatography coupled tandem mass spectrometry (QqQ) and mass spectrometry (qTOF), respectively.\nFor aTC measurements, 5 μL of internal standard solution (0.25 μM sulfamethoxazole and caffeine in H2O) were added to each sample (20 μL) and further processed as described above. Dried samples were re-suspended in 4 μL methanol and diluted in 12 μL H2O. Chromatographic separation was performed on a C18 Kinetex Evo column (Phenomenex, 100 mm×2.1 mm, 1.7 μm particle size) using mobile phase A: H2O, 0.1% formic acid and B: methanol, 0.1% formic acid at 45° C. 10 μL of sample were injected at 100% A and 0.4 mL/min flow followed by a linear gradient to 95% B over 5.5 min and 0.4 mL/min flow leading to aTC, caffeine and sulfamethoxazole elution at 3.0, 1.9, 2.1 min, respectively. The qTOF was operated in positive scanning mode (50-1000 m/z) and the following source parameters: VCap: 3500 V, nozzle voltage: 2000 V, gas temp: 225° C.; drying gas 13 L/min; nebulizer: 20 psig; sheath gas temp 225° C.; sheath gas flow 12 L/min. Online mass calibration was performed using a second ionization source and a constant flow (5 μL/min) of reference solution (121.0509 and 922.0098 m/z). Compounds were identified based on the retention time of chemical standards and their accurate mass (tolerance 20 ppm). The MassHunter Quantitative Analysis Software (Agilent, version 7.0) was used for peak integration and quantification was based on calibration curves using chemical standards and the signal intensity of the internal standard spiked into each sample."}, "[4]": {"settings": "12 hours of aTC (100 μg/mL) via drinking water"}}, "data": [{"smiles": "Cc1c2c(c(O)c3c(O)cccc13)C(=O)[C@]1(O)C(=O)C(C(N)=O)=C(O)[C@@H](N(C)C)[C@@H]1C2", "note": "[aTC, Anhydrotetracycline]", "values": [{"measurement": "growth of Bacteroides in aTC", "setting": "[1]", "value": "grow at wildtype rates"}, {"measurement": "complete repression after removal of the inducer", "setting": "[2]; 14-species community", "value": "7 to 9", "unit": "days"}, {"measurement": "increase of luminescence in fecal pellets", "setting": "[2]; 14-species community, within 24 hours of 100 μg/mL aTC", "value": "~4,500 fold"}, {"measurement": "impact on community structure", "setting": "[2]; alpha and beta diversity, 19-day experiment", "value": "did not impact community structure"}, {"measurement": "time to spike of inducer levels in fecal pellets", "setting": "[3]; [4]", "value": "≤ 12", "unit": "h"}, {"measurement": "time to undetectable after the spike", "setting": "[3]; [4]", "value": 24, "unit": "h"}, {"measurement": "half-life", "setting": "[3]; Swiss Webster, mouse, faeces, oral, fecal pellets, gnotobiotic mice with wildtype B. thetaiotaomicron, 100 μg/mL in drinking water for 4 days, read-out: half-life in vivo (converted)", "value": 19, "unit": "h"}, {"measurement": "degradation by B. thetaiotaomicron in vivo", "setting": "[3]; comparison with germfree mice", "value": "does not degrade aTC in vivo"}, {"measurement": "time to detection after addition to drinking water", "setting": "[3]; fecal pellets, 100 μg/mL", "value": "≤ 24", "unit": "h"}, {"measurement": "time to undetectable after removal from the water", "setting": "[3]; fecal pellets, 100 μg/mL for 4 days", "value": 6, "unit": "days"}]}]}
